Holding throughout (type): in vivo
Experiment [1] concerns Avena fatua, Stellaria media, Echinochloa crus galli, Lolium multiflorum, Setaria viridis, Abutilon theophrasti, Amaranthus retroflexus, Viola tricolor …. Put plainly: Pre-emergence herbicidal effect, harmful plants. The following applies: pre-emergence method, application rate of 0.32 kg and less of active substance per hectare. The text has this:
Seeds of monocotyledonous or dicotyledonous weed plants or crop plants are placed in sandy loam in wood-fiber pots and covered with soil. The compounds according to the invention, formulated in the form of wettable powders (WP), are then applied as aqueous suspension at a water application rate of 600 l/ha (converted) with the addition of 0.2% of wetting agent to the surface of the covering soil. After the treatment, the pots are placed in a greenhouse and kept under good growth conditions for the test plants. After about 3 weeks, the effect of the preparations is scored visually in comparison with untreated controls (herbicidal effect in percent (%): 100% activity=the plants have died, 0% activity=like control plants).

The test system of a further experiment is Zea mays (corn). Nature of the experiment: Post-emergence crop plant compatibility, corn. Conditions: after about 3 weeks. How it is done: (§1) Seeds of monocotyledonous and dicotyledonous weed and crop plants are placed in sandy loam in wood fibre pots, covered with soil and cultivated in a greenhouse under good growth conditions. 2 to 3 weeks after sowing, the test plants are treated at the one-leaf stage. The compounds according to the invention, formulated in the form of wettable powders (WP), are then applied as aqueous suspension at a water application rate of 600 l/ha (converted) with the addition of 0.2% of wetting agent to the green parts of the plants. After the test plants have been kept in the greenhouse under optimum growth conditions for about 3 weeks, the activity of the preparations is rated visually in comparison to untreated controls (herbicidal activity in percent (%): 100% activity=the plants have died, 0% activity=like control plants).

For the next experiment, the system named is Avena fatua. Put plainly: Post-emergence herbicidal effect, Avena fatua. The following applies: after about 3 weeks. How it is done:
as §1

The test system of experiment [2] is Lolium multiflorum (Italian ryegrass). Put plainly: Post-emergence herbicidal effect, Italian ryegrass. Conditions: after about 3 weeks. How it is done: as §1
The test system of experiment [3] is Setaria viridis (green foxtail). Nature of the experiment: Post-emergence herbicidal effect, green foxtail. The following applies: after about 3 weeks. How it is done: as §1
A further experiment concerns Polygunum convolvulus. Put plainly: Post-emergence herbicidal effect, Polygunum convolvulus. The following applies: 80 g of active compound/ha, after about 3 weeks. Here is the method:
as §1

The test system of the next experiment is Stellaria media. Nature of the experiment: Post-emergence herbicidal effect, Stellaria media. Conditions: after about 3 weeks. Here is the method: as §1
Experiment [4] deals with Avena fatua, Echinochloa crus galli, Lolium multiflorum, Setaria viridis and Alopecurus myosuroides. Nature of the experiment: Post-emergence herbicidal effect, harmful plants. Conditions: post-emergence method, application rate of 0.32 kg and less of active substance per hectare. Here is the method: as §1

Take `Cn1nc(C(F)(F)F)c(C[S@@+]([O-])c2ncc(Br)s2)c1OCC(F)(F)F` [Compound 3728]: the “herbicidal activity against harmful plants” value in experiment [1] and in experiment [4] was “very good herbicidal activity” throughout. The “herbicidal activity in percent, ZEAMX” value in the experiment on Zea mays (corn) (20 g of active compound/ha) and in the experiment with Zea mays (corn) (80 g of active compound/ha) was 0% each time. In addition, the “herbicidal activity in percent, AVEFA” value with Avena fatua (20 g of active compound/ha) worked out at 0%; in the experiment on Avena fatua (80 g of active compound/ha), 10%. Besides, the “herbicidal activity in percent, LOLMU” value in experiment [2] (20 g of active compound/ha) and in experiment [2] (80 g of active compound/ha) was 0% throughout. In addition, the “herbicidal activity in percent, SETVI” value in experiment [3] (20 g of active compound/ha) and in experiment [3] (80 g of active compound/ha) was 10% each time. For the same molecule, the “herbicidal activity in percent, POLCO” value in the experiment with Polygunum convolvulus stood at 10%. Further, the “herbicidal activity in percent, STEME” value is on record as 0% in the experiment with Stellaria media (20 g of active compound/ha) and 10% with Stellaria media (80 g of active compound/ha).

The record behind these values is patent US8754234B2, “Chiral 2-(benzylsulfinyl)thiazole derivatives and 2-[(1H-pyrazol-4-ylmethyl)sulfinyl]thiazole derivatives, processes for their preparation and their use as herbicides and plant growth regulators” (Bayer Cropscience AG, priority 2007, dated 2014).
